Broadly, the EC50 is the concentration giving half of the maximal effect.

This note sets out measurements from US10709711B2 (G1 Therapeutics, Inc., priority 2013, dated 2020).

Experiment [1] concerns Daudi (human B-lymphoblastoid cell from Burkitt's Lymphoma patient). Description: Inhibition of cellular proliferation, Daudi cells (CellTiter-Glo). In kind it is cell-based. The settings on record: EC50 measured as illustrated in Example 150 (CellTiter-Glo). Here is the method:
(§1) The SupT1 cells were seeded in Costar (Tewksbury, Mass.) 3093 96 well tissue culture treated white walled/clear bottom plates. A nine point dose response dilution series from 10 uM to 1 nM was performed and cell viability was determined after four days as indicated using the CellTiter-Glo® assay (CTG; Promega, Madison, Wis., United States of America) following the manufacturer's recommendations. Plates were read on a BioTek (Winooski, Vt.) Syngergy2 multi-mode plate reader. The Relative Light Units (RLU) were plotted as a result of variable molar concentration and data was analyzed using Graphpad (LaJolla, Calif.) Prism 5 statistical software to determine the IC50 for each compound.
(§2) The compounds listed in Table 1 were tested for the inhibition of cellular proliferation using SupT1 (human T-cell lymphoblastic leukemia) and Daudi (human B-lymphoblastoid cell from Burkitt's Lymphoma patient).
On the technique in general: Cellular ATP, detected with luciferase, serves as a proxy for viable cell number.

The subject of experiment [2] is SupT1 cells (human T-cell lymphoblastic leukemia). Description: Inhibition of cellular proliferation, SupT1 cells (CellTiter-Glo). It is filed as cell-based. Conditions: SUP-T1, 96 h, cell viability after four days, nine point dilution series 10 uM to 1 nM. Here is the method: as §1, §2

Regarding `O=C1NCC2(CCCCC2)n2c1cc1cnc(Nc3ccc(N4CCN(C5CCC5)CC4)cn3)nc12` [F], the concentration for a half-maximal effect (EC50) in experiment [1] is 692 nM; in experiment [2], 107 nM.
As for `CC1(C)CN(c2ccc(Nc3ncc4cc5n(c4n3)C3(CCCCC3)CNC5=O)nc2)CCN1` [I], the 50% effective concentration (EC50) turned out to be 249 nM in experiment [1] and 39 nM in experiment [2].
`CC1CN(c2ccc(Nc3ncc4cc5n(c4n3)C3(CCCC3)CNC5=O)nc2)CC(C)N1CCC(C)(C)C` (stereo not drawn) [PPP] had an EC50 in experiment [2] of 3040 nM.
As to `CCN1[C@H](C)CN(c2ccc(Nc3ncc4cc5n(c4n3)C3(CCCCC3)CNC5=O)nc2)C[C@@H]1C` [FF], the EC50 is 380 nM in experiment [1] and 90 nM in experiment [2].
Taken in the same sequence, the figures for `O=C1NCC2(CCCC2)n2c1cc1cnc(Nc3ccc(N4CCNCC4)cn3)nc12` [QQQ] were 485 nM and 258 nM.
Taken in the same sequence, the figures for `CC(C)N1CCN(c2ccc(Nc3ncc4cc5n(c4n3)C3(CCCC3)CNC5=O)nc2)CC1` [III] were 775 nM and 230 nM.
As to `CC1CN(c2ccc(Nc3ncc4cc5n(c4n3)C3(CCCCC3)CNC5=O)nc2)CCN1CCC(C)(C)C` (stereo not drawn) [G], the figures for the EC50 in experiment [1] and in experiment [2] were 1530 nM and 156 nM, respectively.
Taken in the same sequence, the figures for `CCN(CC)C1CCN(c2ccc(Nc3ncc4cc5n(c4n3)C3(CCCC3)CNC5=O)nc2)C1` (stereo not drawn) [UU] were 3160 nM and 228 nM.
Taken in the same sequence, the figures for `C[C@H](O)CN1CCN(c2ccc(Nc3ncc4cc5n(c4n3)C3(CCCC3)CNC5=O)nc2)C[C@H]1C` [XX] were 499 nM and 94 nM.
The matching figures for `O=C1NCC2(CCCC2)n2c1cc1cnc(Nc3ccc(N4CCOCC4)nn3)nc12` [SSS]: more than 3000 nM and 305 nM.
On to `CN1CCN(c2ccc(Nc3ncc4cc5n(c4n3)C3(CCCCC3)CNC5=O)nc2)CC1` [T], for which the figures for the EC50 in experiment [1] and in experiment [2] were 392 nM and 113 nM, respectively.
The matching figures for `CCC(C)CN1[C@H](C)CN(c2ccc(Nc3ncc4cc5n(c4n3)C3(CCCC3)CNC5=O)nc2)C[C@@H]1C` (stereo partly drawn) [JJJ]: 448 nM and 143 nM.
Take `C[C@@H]1CN(c2ccc(Nc3ncc4cc5n(c4n3)C3(CCCCC3)CNC5=O)nc2)C[C@H](C)N1CCC(C)(C)C` [M]: the EC50 in experiment [1] was 1460 nM; in experiment [2], 184 nM.
The matching figures for `C[C@H]1CN(c2ccc(Nc3ncc4cc5n(c4n3)C3(CCCCC3)CNC5=O)nc2)CCN1C` [R]: 299 nM and 43 nM.
For the compound `O=C1NCC2(CCCCC2)n2c1cc1cnc(Nc3ccc(C(=O)N4CCNCC4)cn3)nc12` [Y], the EC50 is 548 nM in experiment [1] and 85 nM in experiment [2].
The matching figures for `CCN(CC)C1CCN(c2ccc(Nc3ncc4cc5n(c4n3)C3(CCCCC3)CNC5=O)nc2)CC1` [CC]: 111 nM and 17 nM.
For `CN1CCN(C(=O)c2ccc(Nc3ncc4cc5n(c4n3)C3(CCCC3)CNC5=O)nc2)CC1` [BBB], the results for the concentration giving a half-maximal response (EC50) in experiment [1] and in experiment [2] were 758 nM and 41 nM, respectively.
The matching figures for `O=C1NCC2(CCCC2)n2c1cc1cnc(Nc3ccc(N4CCC(N5CCCCC5)CC4)cn3)nc12` [HHH]: 984 nM and 85 nM.
Taken in the same sequence, the figures for `O=C1NCC2(CCCC2)n2c1cc1cnc(Nc3ccc(N4CCC(N5CCOCC5)CC4)cn3)nc12` [WW] were 1690 nM and 77 nM.
Take `CC(C)N1CCN(Cc2ccc(Nc3ncc4cc5n(c4n3)C3(CCCCC3)CNC5=O)nc2)CC1` [EE]: the results for the EC50 in experiment [1] and in experiment [2] were 259 nM and 89 nM, respectively.
Turning to `C[C@@H]1CN(c2ccc(Nc3ncc4cc5n(c4n3)C3(CCCCC3)CNC5=O)nc2)CCN1C[C@@H](C)O` [J], the values for the EC50 in experiment [1] and in experiment [2] were 362 nM and 47 nM, respectively.
The matching figures for `C[C@@H]1CN(c2ccc(Nc3ncc4cc5n(c4n3)C3(CCCC3)CNC5=O)nc2)C[C@H](C)N1` [DDD]: 839 nM and 161 nM.
Taken in the same sequence, the figures for `CCC(C)[C@@H]1CNC(=O)c2cc3cnc(Nc4ccc(N5CCNCC5)cn4)nc3n21` (stereo partly drawn) [VVV] were 1070 nM and 224 nM.
The matching figures for `O=C1NCC2(CCCCC2)n2c1cc1cnc(Nc3ccc(N4CCC(N5CCOCC5)CC4)cn3)nc12` [U]: 363 nM and 48 nM.
Consider `O=C1NCC2(CCCCC2)n2c1cc1cnc(Nc3ccc(N4CCC(N5CCCCC5)CC4)cn3)nc12` [N], for which the EC50 in experiment [1] turned out to be 122 nM; in experiment [2], 34 nM.
On to `O=C1NCC2(CCCCC2)n2c1cc1cnc(Nc3ccc(N4CCNCC4)cn3)nc12` [Q], for which the EC50 in experiment [1] was found to be 561 nM; in experiment [2] it was 40 nM.
Regarding `CCC(C)CN1CCN(c2ccc(Nc3ncc4cc5n(c4n3)C3(CCCC3)CNC5=O)nc2)CC1` (stereo not drawn) [AAA], the concentration for a half-maximal effect (EC50) in experiment [1] was found to be 3340 nM; in experiment [2] it was 15 nM.
Taken in the same sequence, the figures for `C[C@@H]1CN(c2ccc(Nc3ncc4cc5n(c4n3)C3(CCCCC3)CNC5=O)nc2)CCN1C` [NN] were 1040 nM and 84 nM.
Taken in the same sequence, the figures for `C[C@@H]1CN(c2ccc(Nc3ncc4cc5n(c4n3)C3(CCCCC3)CNC5=O)nc2)C[C@H](C)N1` [P] were 140 nM and 33 nM.
The matching figures for `C[C@@H]1CN(c2ccc(Nc3ncc4cc5n(c4n3)C3(CCCCC3)CNC5=O)nc2)C[C@H](C)N1C` [DD]: 546 nM and 105 nM.
As to `CC(C)[C@H]1CNC(=O)c2cc3cnc(Nc4ccc(N5CCNCC5)cn4)nc3n21` [UUU], the EC50 was found to be 1420 nM in experiment [1] and 311 nM in experiment [2].
The matching figures for `CN(C)C1CCN(c2ccc(Nc3ncc4cc5n(c4n3)C3(CCCCC3)CNC5=O)nn2)CC1` [SS]: 967 nM and 11 nM.
Taken in the same sequence, the figures for `O=C1NCC2(CCCCC2)n2c1cc1cnc(Nc3ccc(C(=O)N4CCN(C5CCC5)CC4)cn3)nc12` [LL] were 501 nM and 84 nM.
The matching figures for `C[C@H](O)CN1CCN(c2ccc(Nc3ncc4cc5n(c4n3)C3(CCCCC3)CNC5=O)nc2)CC1` [A]: 281 nM and 57 nM.
For `CC(C)N1CCN(c2ccc(Nc3ncc4cc5n(c4n3)C3(CCCCC3)CNC5=O)nc2)C[C@H]1C` [L], the EC50 was found to be 1260 nM in experiment [1] and 153 nM in experiment [2].
Taken in the same sequence, the figures for `O=C1NCC2(CCCCC2)n2c1cc1cnc(Nc3ccc(N4CCN(CC5CC5)CC4)cn3)nc12` [HH] were 681 nM and 79 nM.
In experiment [2], `CC(C)N1CCN(c2ccc(Nc3ncc4cc5n(c4n3)C3(CCCCC3)CNC5=O)nc2)CC1` [GG] had a concentration for a half-maximal effect (EC50) of 57 nM.
Take `C[C@@H](O)CN1CCN(c2ccc(Nc3ncc4cc5n(c4n3)C3(CCCCC3)CNC5=O)nc2)CC1` [S]: the concentration for a half-maximal effect (EC50) was determined as 634 nM in experiment [1] and 110 nM in experiment [2].
As for `C[C@@H]1CN(c2ccc(Nc3ncc4cc5n(c4n3)C3(CCCCC3)CNC5=O)nc2)CCN1` [V], the EC50 in experiment [1] was found to be 194 nM; in experiment [2] it was 35 nM.
As for `CC(C)(O)CN1CCN(c2ccc(Nc3ncc4cc5n(c4n3)C3(CCCC3)CNC5=O)nc2)CC1` [EEE], the EC50 in experiment [1] was determined as 475 nM; in experiment [2] it was 65 nM.
The matching figures for `CC(C)C1CN(c2ccc(Nc3ncc4cc5n(c4n3)C3(CCCCC3)CNC5=O)nc2)CCN1` (stereo not drawn) [E]: 140 nM and 9.3 nM.
The matching figures for `C[C@H](O)CN1[C@H](C)CN(c2ccc(Nc3ncc4cc5n(c4n3)C3(CCCCC3)CNC5=O)nc2)C[C@@H]1C` [Z]: 359 nM and 87 nM.
The matching figures for `C[C@@H](O)CN1CCN(c2ccc(Nc3ncc4cc5n(c4n3)C3(CCCC3)CNC5=O)nc2)C[C@@H]1C` [VV]: 683 nM and 115 nM.
With `CC1CN(c2ccc(Nc3ncc4cc5n(c4n3)C3(CCCCC3)CNC5=O)nc2)CC(C)N1CC1CC1` (stereo not drawn) [OO], the EC50 in experiment [1] stood at 880 nM; in experiment [2], 114 nM.
The matching figures for `CC(C)N1CCN(c2ccc(Nc3ncc4cc5n(c4n3)C3(CCCCC3)CNC5=O)nc2)CC1C` (stereo not drawn) [PP]: 260 nM and 81 nM.
For the compound `CC(C)C[C@@H]1CNC(=O)c2cc3cnc(Nc4ccc(N5CCN(C)CC5)cn4)nc3n21` [XXX], the EC50 in experiment [1] stood at 1170 nM; in experiment [2], 270 nM.
The matching figures for `CN(C)C1CCN(c2ccc(Nc3ncc4cc5n(c4n3)C3(CCCC3)CNC5=O)nn2)CC1` [TTT]: 3300 nM and 587 nM.
Consider `CC1CN(c2ccc(Nc3ncc4cc5n(c4n3)C3(CCCC3)CNC5=O)nc2)CCN1CC1CC1` (stereo not drawn) [NNN], for which the figures for the concentration for a half-maximal effect (EC50) in experiment [1] and in experiment [2] were 519 nM and 160 nM, respectively.
Taken in the same sequence, the figures for `CC1(C)CN(c2ccc(Nc3ncc4cc5n(c4n3)C3(CCCCC3)CNC5=O)nc2)CCN1C1CC1` [BB] were 472 nM and 70 nM.
Take `CC(C)N1CCN(c2ccc(Nc3ncc4cc5n(c4n3)C3(CCCC3)CNC5=O)nn2)CC1` [RRR]: the EC50 worked out at 2010 nM in experiment [1] and 278 nM in experiment [2].
For the compound `CC1CCN(C2CCN(c3ccc(Nc4ncc5cc6n(c5n4)C4(CCCCC4)CNC6=O)nc3)CC2)C1` (stereo not drawn) [K], the EC50 in experiment [1] was found to be 167 nM; in experiment [2] it was 134 nM.
Consider `CC1(C)CN(c2ccc(Nc3ncc4cc5n(c4n3)C3(CCCCC3)CNC5=O)nc2)CCN1CC1CC1` [H], for which the EC50 is 719 nM in experiment [1] and 118 nM in experiment [2].
The matching figures for `CCN(CC)C1CCN(c2ccc(Nc3ncc4cc5n(c4n3)C3(CCCCC3)CNC5=O)nc2)C1` (stereo not drawn) [QQ]: 851 nM and 68 nM.
Consider `O=C1NCC2(CCCCC2)n2c1cc1cnc(Nc3ccc(N4CCC(N5CCC(C(F)(F)F)CC5)CC4)cn3)nc12` [X], for which the EC50 is 318 nM in experiment [1] and 36 nM in experiment [2].
Taken in the same sequence, the figures for `O=C1NCC2(CCCC2)n2c1cc1cnc(Nc3ccc(C(=O)N4CCN(CC5CC5)CC4)cn3)nc12` [OOO] were 668 nM and 104 nM.
